# Where a SMILES comes first, the peptide text is derived from it. [ ]: non-standard residue; d: D form. The star is where a group is joined. ξ: configuration not given here. Biotinyl(4ξ) = O=C1N[C@H]2CSC(CCCCC(=O)*)[C@H]2N1; pY = N[C@@H](Cc1ccc(OP(=O)(O)O)cc1)C(=O)O; ξIle = CC[C@H](C)C(N)C(=O)O
# How the values were obtained:
# HEK293T cells [1] = experiment: Cell migration by wound healing method in response to Wnt3A; assay type: cell-based; settings: 1 μM, Wnt3A 30 ng/ml, 48 hours, FIG. 42
# HepG2 cells [2] = experiment: MTT proliferation with stimulants (FIG. 37); assay type: cell-based; settings: pre-incubated one hour, stimulant 48 hours
# Description: (§1) The MTT assay was performed to measure the proliferation of various cancer cell lines, such as HEK293T, LN18 glioma, HepG2 liver cancer, AGS gastric cancer, and A549 lung cancer cells.
# HEK293T cells [3] = experiment: MTT proliferation with stimulants (FIG. 37); assay type: cell-based; settings: pre-incubated one hour, stimulant 48 hours
# Description: as §1
# A549 cells = experiment: MTT proliferation with stimulants (FIG. 37); assay type: cell-based; settings: pre-incubated one hour, stimulant 48 hours
# Description: as §1
# LN18 cells = experiment: MTT proliferation with stimulants (FIG. 37); assay type: cell-based; settings: pre-incubated one hour, stimulant 48 hours
# Description: as §1
# [4] = biological target: T1, p-Tyr42 RhoA and β-catenin (Homo sapiens, UniProt P35222); experiment: Co-immunoprecipitation of p-Tyr42 RhoA with β-catenin after Wnt3A; assay type: cell-based; settings: cells pretreated with inhibitor, then Wnt3A; FIGS. 20 and 21
# T1 construct: endogenous in cells
# T1 sequence (P35222 2-781 limits assumed): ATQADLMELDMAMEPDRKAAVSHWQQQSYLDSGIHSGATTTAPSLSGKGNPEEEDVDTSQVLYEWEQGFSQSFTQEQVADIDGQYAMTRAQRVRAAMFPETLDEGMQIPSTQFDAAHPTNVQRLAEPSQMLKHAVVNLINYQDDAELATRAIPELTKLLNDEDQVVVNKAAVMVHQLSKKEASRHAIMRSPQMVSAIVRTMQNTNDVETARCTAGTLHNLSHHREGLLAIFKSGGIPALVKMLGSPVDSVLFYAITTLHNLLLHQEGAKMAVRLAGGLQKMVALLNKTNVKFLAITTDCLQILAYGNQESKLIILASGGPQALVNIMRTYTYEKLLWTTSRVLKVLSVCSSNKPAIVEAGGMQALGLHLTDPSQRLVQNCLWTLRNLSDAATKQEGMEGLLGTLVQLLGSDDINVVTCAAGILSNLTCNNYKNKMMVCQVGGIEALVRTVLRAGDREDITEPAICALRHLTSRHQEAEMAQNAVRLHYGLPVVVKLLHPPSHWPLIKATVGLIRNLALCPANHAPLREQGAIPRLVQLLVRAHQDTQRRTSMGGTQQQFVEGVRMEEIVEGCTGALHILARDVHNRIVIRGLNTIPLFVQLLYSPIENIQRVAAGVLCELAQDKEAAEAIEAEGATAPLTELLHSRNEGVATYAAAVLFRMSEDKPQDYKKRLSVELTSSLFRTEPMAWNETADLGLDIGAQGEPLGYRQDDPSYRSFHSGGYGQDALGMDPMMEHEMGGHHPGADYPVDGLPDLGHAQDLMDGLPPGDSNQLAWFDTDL
# Description: (§2) HEK293T cells were collected and washed with ice-cold PBS, and dissolved with RIPA buffer (50 mM Tris-HCl (pH7.4), 150 mM NaCl, 1% Nonidet P-40, 0.25% NaN3, 1 mM EDTA, 1 mM PMSF, 1 μg/mL aprotinin, 1 μg/mL leupeptin, 1 μg/mL pepstatin, 1 mM sodium orthovanadate, and 1 mM NaF). The cell lysate was centrifuged at 13,475×g for 20 minutes and the supernatant was analyzed for protein concentration using the BCA Protein Assay Kit (Pierce; Rockford, USA). Proteins of the cell lysate were run on SDS-PAGE and transferred to a PVDF membrane (Millipore; Billerica, USA). Anti-RhoA ( 1/500), anti-actin (Santa Cruz; Dallas, Calif.), anti-GSK-3β( 1/500), anti-phospho (Ser9)-GSK-3β( 1/500) (both Cell Signaling, Beverly, USA), anti-O-catenin ( 1/1000) (Invitrogen, Carlsbad, USA), anti-active β-catenin ( 1/500) (Millipore, Billerica, USA), and anti-Tau ( 1/500) (Biosource; Camarillo, Calif.) antibodies were incubated with PVDF membranes at room temperature for 2 hours, and then each was washed 3 times for 5 minutes. Thereafter, the membrane was incubated for 1 hour with anti-rat IgG antibody or anti-mouse IgG antibody conjugated with horse radish peroxidase (HRP) (both provided by ENZO Life Science; Farmingdale, USA, 1/1000 dilution) and each was washed later three times for 10 minutes. The membrane was incubated with an enhanced chemiluminescence (ECL) reagent (Amersham; Uppsala, Sweden) and then exposed to an X-ray film. The strength of the band was quantified with the ImageJ program of the U.S. National Institutes of Health (Bethesda, USA).
# 1×10^7 Cells were washed with 1×PBS, and the cell lysate was prepared using cell lysis buffer (20 mM Tris pH 7.4, 120 mM NaCl, and 1% Nonidet P-40) containing 10 μg/mL each of leupeptin and aprotinin and each of NaF, Na3VO4, PMSF and 5 mM MgCl2. The lysate was used for immunoprecipitation by specific antibodies. […]
# cyclin D1 and c-Myc = experiment: Wnt3A-induced cyclin D1 and c-Myc expression, Western blotting; assay type: cell-based; settings: HEK293T; pretreated one hour; Wnt3A 30 ng/mL two hours; FIG. 9
# Description: as §2, with “Thereafter, the membrane was incubated for 1 hour with anti-rat IgG antibody or anti-mouse IgG antibody conjugated with horse radish peroxidase (HRP) (both provided by ENZO Life Science; Farmingdale, USA, 1/1000 dilution) and each was washed later three times for 10 minutes. The membrane was incubated with an enhanced chemiluminescence (ECL) reagent (Amersham; Uppsala, Sweden) and then exposed to an X-ray film.” left out
# [5] = test system: macrophage cell line RAW264.7; experiment: Wnt3A-mediated cell proliferation, fluorescence microscopy; assay type: cell-based, mouse; settings: Tat-C3 1 μg/mL, Y27632 10 μM pretreated one hour; Wnt3A 30 ng/mL two days; FIG. 7
# Description: (§3) All cells tested were cultured in Dulbecco's Modified Eagle Medium (DMEM; Weljin, Gyeongsan) containing 5% fetal bovine serum (FBS; GIBCO, Carlsbad, USA) and 1% penicillin-streptomycin (complete medium) under 5% CO2 at 37° C.
# HEK293T cells [6] = experiment: Wnt3A-induced cell proliferation, fluorescence microscopy; assay type: cell-based; settings: Tat-C3 1 μg/mL, Y27632 10 μM pretreated one hour; Wnt3A 30 ng/mL two days; FIG. 6
# Description: as §3
# HepG2 cells [7] = experiment: MTT proliferation, substituted amino acids of EM3 (FIGS. 39, 40); assay type: cell-based; settings: DMEM 2.5% FBS 48 hours, FIG. 40 legend
# Description: FIGS. 39 and 40 show the effect of the substituted amino acids of EM3 on cell proliferation, and the present inventors have designed various peptide inhibitors replaced with other amino acids. The cells were cultured in DMEM containing 2.5% FBS for 48 hours and cell proliferation was measured by MTT assay.
# LN18 = experiment: MTT proliferation, FBS-stimulated (FIG. 38); assay type: cell-based; settings: pretreated one hour, 2% FBS 48 hours
# Description: (§4) The MTT assay was performed to measure the proliferation of various cancer cell lines, such as HEK293T, LN18 glioma, HepG2 liver cancer, HT29 colon cancer, 4T1 mouse breast cancer, and RAW264.7 mouse macrophages.
# HT29 = experiment: MTT proliferation, FBS-stimulated (FIG. 38); assay type: cell-based; settings: pretreated one hour, 2% FBS 48 hours
# Description: as §4
# HEK293T = experiment: MTT proliferation, FBS-stimulated (FIG. 38); assay type: cell-based; settings: pretreated one hour, 2% FBS 48 hours
# Description: as §4
# HepG2 = experiment: MTT proliferation, FBS-stimulated (FIG. 38); assay type: cell-based; settings: pretreated one hour, 2% FBS 48 hours
# Description: as §4
# 4T1 = experiment: MTT proliferation, FBS-stimulated (FIG. 38); assay type: cell-based, mouse; settings: pretreated one hour, 2% FBS 48 hours
# Description: as §4
# RAW264.7 cells = experiment: MTT proliferation, FBS-stimulated (FIG. 38); assay type: cell-based, mouse; settings: pretreated one hour, 2% FBS 48 hours
# Description: as §4
# 4T1 cells = experiment: Xenotransplantation experiment with 4T1 cells in BALB/c mice; assay type: in vivo; settings: EM3 2.5 mM, 10 μL/mouse daily
# Description: Animal care and experiments were performed by the approval of the Institutional Animal Care and Use Committee (HIRB-2016-52) of Hallym University. Male BALB/c mice (7 weeks old) were injected with 4T1 cells (5×10^5 cells in […] of 1×PBS), and randomly assigned to an EM3 treatment group (7 mice) or the control group (6 mice). The normal group also included two non-tumor mice. Cells were injected subcutaneously and EM3 (2.5 mM, 10 μL/mouse) and 1× PBS (10 μL/mouse) were applied daily. Tumor volume was measured daily and tumor weight and spleen size were measured after sacrificing the mice.
compound,measurement,setting,value
CC[C@H](C)C(NC(=O)[C@H](CC(=O)O)NC(=O)[C@H](C)NC(=O)[C@@H](NC(=O)[C@H](Cc1ccc(O)cc1)NC(=O)[C@H](CC(N)=O)NC(=O)[C@H](CCC(=O)O)NC(=O)[C@H](Cc1ccccc1)NC(=O)[C@@H](NC(=O)[C@@H](NC(=O)CCCCC1SC[C@@H]2NC(=O)N[C@H]12)[C@@H](C)O)C(C)C)C(C)C)C(=O)N[C@@H](CCC(=O)O)C(=O)O (stereo partly shown) [EM4] ({Biotinyl(4ξ)}-TVFENYVAD[ξIle]E-OH),migration of HEK293 cells in response to Wnt3A,HEK293T cells [1],reducing the migration
CC(C)[C@H](NC(=O)[C@H](Cc1ccc(O)cc1)NC(=O)[C@@H](N)CC(N)=O)C(=O)N[C@@H](C)C(N)=O [PR2] (H-NYVA-NH2),proliferation of HepG2 cells by insulin,HepG2 cells [2],significantly inhibited
same,proliferation of HEK293T cells by LPS,HEK293T cells [3],significantly inhibited
same,proliferation of HEK293T cells by Wnt3A,HEK293T cells [3],significantly inhibited
same,proliferation of HEk293T cells by H2O2,HEK293T cells [3],significantly inhibited
same,proliferation of A549 cells by PMA,A549 cells,significantly inhibited
same,proliferation of LN18 cells by EGF,LN18 cells,significantly inhibited
same,co-immunoprecipitation of p-Tyr42 RhoA and β-catenin,[4],inhibited
CC(C)[C@H](NC(=O)[C@H](Cc1ccc(OP(=O)(O)O)cc1)NC(=O)[C@@H](N)CC(N)=O)C(=O)N[C@@H](C)C(N)=O [PR3] (H-N[pY]VA-NH2),proliferation of HepG2 cells by insulin,HepG2 cells [2],significantly inhibited
same,proliferation of HEK293T cells by LPS,HEK293T cells [3],significantly inhibited
same,proliferation of HEK293T cells by Wnt3A,HEK293T cells [3],significantly inhibited
same,proliferation of HEk293T cells by H2O2,HEK293T cells [3],significantly inhibited
same,proliferation of A549 cells by PMA,A549 cells,significantly inhibited
same,proliferation of LN18 cells by EGF,LN18 cells,significantly inhibited
same,co-immunoprecipitation of p-Tyr42 RhoA and β-catenin,[4],inhibited
same,migration of HEK293 cells in response to Wnt3A,HEK293T cells [1],reducing the migration
C[C@@H](N)[C@H]1CC[C@H](C(=O)Nc2ccncc2)CC1 [Y27632],Wnt3A-increased expression of cyclin D1 and c-Myc,cyclin D1 and c-Myc,abolished this increased expression
same,Wnt3A-mediated proliferation in RAW264.7,[5],inhibited
same,proliferation of HEK293T cells by Wnt3A,HEK293T cells [6],abolished
AYVA [HL1],"inhibitory effect on HepG2 cell proliferation, compared with EM3",HepG2 cells [7],less effective than EM3
NFVA [HL7],"inhibitory effect on HepG2 cell proliferation, compared with EM3",HepG2 cells [7],less effective than EM3
NYLA [HL5],"inhibitory effect on HepG2 cell proliferation, compared with EM3",HepG2 cells [7],less effective than EM3
NYVA-NH2 [EM3],co-immunoprecipitation of p-Tyr42 RhoA and β-catenin,[4],inhibited
same,migration of HEK293 cells in response to Wnt3A,HEK293T cells [1],reducing the migration
same,proliferation of FBS-stimulated LN18 cells,LN18,significantly inhibited
same,proliferation of FBS-stimulated HT29 cells,HT29,significantly inhibited
same,proliferation of FBS-stimulated HEK293T cells,HEK293T,significantly inhibited
same,proliferation of FBS-stimulated HepG2 cells,HepG2,significantly inhibited
same,proliferation of FBS-stimulated 4T1 cells,4T1,significantly inhibited
same,proliferation of FBS-stimulated RAW264.7 cells,RAW264.7 cells,significantly inhibited
same,tumor volume,"4T1 cells; 4T1 cells subcutaneous, FIG. 43A",dramatically decreased
same,tumor weight,"4T1 cells; 4T1 cells subcutaneous, after sacrifice, FIG. 43B",dramatically decreased
same,spleen size,"4T1 cells; 4T1 tumor, after sacrifice, FIG. 43C",same size compared to control mice
NYVS [HL4],"inhibitory effect on HepG2 cell proliferation, compared with EM3",HepG2 cells [7],less effective than EM3
